Assay results taken from ChEMBL document CHEMBL1201862, “PubChem BioAssay data set” (2004).
Activity calls are given as the source filed them.

Experiments:
Nonstructural protein 1 = Nonstructural protein 1 (Influenza A virus, UniProt Q194T2); format: functional, Influenza A virus (A/California/07/2009(H1N1))
Cytochrome P450 2C19 = Cytochrome P450 2C19 (Homo sapiens, UniProt P33261); assay: Cytochrome panel assay with activity outcomes. Panel member name: p450-cyp2c19 Compounds with AC50 equal or less than 10 uM are considered active; format: functional
[1] = molecular target: T1, Replicative DNA helicase DnaB (Mycobacterium tuberculosis, UniProt P9WMR3); assay: DnaB intein splicing inhibitors, dose response, biochemical, cell-free fluorescence (AID 449749); format: functional
T1 sequence (P9WMR3 whole entry): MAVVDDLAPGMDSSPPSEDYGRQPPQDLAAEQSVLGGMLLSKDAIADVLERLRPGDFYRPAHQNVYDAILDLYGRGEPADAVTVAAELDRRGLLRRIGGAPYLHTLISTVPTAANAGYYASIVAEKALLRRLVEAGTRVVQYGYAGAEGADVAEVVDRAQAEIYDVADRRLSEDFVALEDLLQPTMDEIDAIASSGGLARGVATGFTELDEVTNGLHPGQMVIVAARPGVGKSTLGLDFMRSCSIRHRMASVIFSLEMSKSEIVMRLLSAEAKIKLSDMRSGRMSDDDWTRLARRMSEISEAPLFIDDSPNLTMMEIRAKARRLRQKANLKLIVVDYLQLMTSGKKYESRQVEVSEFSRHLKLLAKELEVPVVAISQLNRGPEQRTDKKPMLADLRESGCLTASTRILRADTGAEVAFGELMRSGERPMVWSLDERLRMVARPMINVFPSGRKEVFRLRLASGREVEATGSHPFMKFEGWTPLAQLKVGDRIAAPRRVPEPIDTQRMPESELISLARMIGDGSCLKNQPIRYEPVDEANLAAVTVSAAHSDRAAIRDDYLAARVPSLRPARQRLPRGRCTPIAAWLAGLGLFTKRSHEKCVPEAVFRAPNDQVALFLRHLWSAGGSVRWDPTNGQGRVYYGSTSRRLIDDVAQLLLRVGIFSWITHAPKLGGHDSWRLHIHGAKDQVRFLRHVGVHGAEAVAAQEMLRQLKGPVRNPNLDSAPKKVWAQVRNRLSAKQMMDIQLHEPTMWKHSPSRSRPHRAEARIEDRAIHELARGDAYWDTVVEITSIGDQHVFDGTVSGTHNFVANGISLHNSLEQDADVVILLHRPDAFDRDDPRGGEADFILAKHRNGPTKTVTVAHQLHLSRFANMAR

Protein RecA = molecular target: T2, Protein RecA (Mycobacterium tuberculosis, UniProt P9WHJ3); assay: Fluorescence Cell-Free Homogeneous Dose Retest to Identify Inhibitors of RecA-Intein Splicing Activity. [Related pubchem assays (depositor defined):AID2097, AID2223, AID489010, AID492950]; format: functional
T2 sequence (P9WHJ3 whole entry): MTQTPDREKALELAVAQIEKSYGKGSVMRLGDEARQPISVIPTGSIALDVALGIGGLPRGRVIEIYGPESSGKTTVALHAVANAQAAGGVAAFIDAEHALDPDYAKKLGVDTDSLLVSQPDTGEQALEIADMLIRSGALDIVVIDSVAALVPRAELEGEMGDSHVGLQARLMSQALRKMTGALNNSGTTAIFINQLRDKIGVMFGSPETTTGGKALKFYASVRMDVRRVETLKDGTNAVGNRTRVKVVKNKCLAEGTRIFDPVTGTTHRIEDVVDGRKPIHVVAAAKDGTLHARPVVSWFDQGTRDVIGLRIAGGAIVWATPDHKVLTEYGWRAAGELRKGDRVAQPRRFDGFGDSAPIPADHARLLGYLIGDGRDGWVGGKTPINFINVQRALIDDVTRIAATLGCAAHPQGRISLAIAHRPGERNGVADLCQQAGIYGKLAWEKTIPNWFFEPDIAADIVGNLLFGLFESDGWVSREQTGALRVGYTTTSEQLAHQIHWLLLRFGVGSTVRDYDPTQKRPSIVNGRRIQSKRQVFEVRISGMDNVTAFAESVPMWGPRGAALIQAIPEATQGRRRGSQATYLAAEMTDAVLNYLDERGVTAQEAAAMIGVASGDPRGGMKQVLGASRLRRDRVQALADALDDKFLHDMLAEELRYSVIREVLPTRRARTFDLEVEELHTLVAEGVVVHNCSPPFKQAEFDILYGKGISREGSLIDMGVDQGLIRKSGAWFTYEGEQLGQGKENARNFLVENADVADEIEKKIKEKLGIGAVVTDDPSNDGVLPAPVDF

MDCK = assay: antiviral activity against H1N1 influenza, dose response, cell-based, strain KY136 (AID 540257); format: functional; details: Canis lupus familiaris
Cytochrome P450 1A2 = molecular target: T3, Cytochrome P450 1A2 (Homo sapiens, UniProt P05177);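 note: PubChem cytochrome P450 panel assay, CYP1A2 panel member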
T3 sequence (P05177 whole entry): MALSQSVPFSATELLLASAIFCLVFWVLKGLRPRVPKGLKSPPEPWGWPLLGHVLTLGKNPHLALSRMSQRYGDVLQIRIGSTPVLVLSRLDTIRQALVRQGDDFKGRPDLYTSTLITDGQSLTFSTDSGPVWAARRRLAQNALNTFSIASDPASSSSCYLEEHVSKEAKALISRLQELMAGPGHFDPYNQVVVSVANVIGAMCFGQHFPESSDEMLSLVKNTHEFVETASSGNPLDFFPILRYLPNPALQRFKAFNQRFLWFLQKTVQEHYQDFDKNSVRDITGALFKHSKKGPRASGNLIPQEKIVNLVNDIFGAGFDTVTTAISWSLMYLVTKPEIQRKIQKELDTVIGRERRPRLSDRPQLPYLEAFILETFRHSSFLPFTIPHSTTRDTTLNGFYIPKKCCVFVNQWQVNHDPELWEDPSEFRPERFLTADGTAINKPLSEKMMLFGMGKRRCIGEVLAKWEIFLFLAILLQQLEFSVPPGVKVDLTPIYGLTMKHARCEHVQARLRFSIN

Cytochrome P450 2C9 = Cytochrome P450 2C9 (Homo sapiens, UniProt P11712)
[2] = restored growth of temperature-sensitive Burl-1 yeast – whole organism, S. cerevisiae, Burl-1 ts mutant, luminescence, counter-screen for SUMOylation pathway inhibitor project, dose response (AID 463199); format: functional
[3] = molecular target: E3 ubiquitin-protein ligase Mdm2 (Homo sapiens, UniProt Q00987); assay: MDM2-luc reporter signal enhancers, multi-concentration potency testing, MDM2 ubiquitin-protein ligase inhibitor program, whole-cell format, luminescence detection, 384-well microplate (AID 1394); format: functional;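 note: MDM2 E3 inhibitors raise luminescence so EC50 is for signal enhancement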
[4] = Luminescence Cell-Based Dose Retest to Confirm Inhibitors of Cancer Stem Cells. [Related pubchem assays (depositor defined):AID2717, AID2721]; format: functional; details: Homo sapiens
[5] = viability loss of HMLE_sh_eGFP cells – cell-based, luminescence, counter-screen for HMLE_sh_ECad selective toxicity project, dose response (AID 463074); format: functional, Homo sapiens;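 note: HMLE human mammary epithelial cells expressing control shRNA against eGFP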
[6] = loss of viability in HepG2 cells – cell-based, CellTiter-Glo, cherry-picked, cytotoxicity control for Shn3 inhibitor project, dose response (AID 624134); format: functional
[7] = non-specific 3'UTR reporter inhibition in Clone20-Shn3RL – cell-based, Renilla luciferase, cherry-picked, counter-screen for Shn3 inhibitor project, dose response (AID 624133); format: functional
[8] = Late-stage probe development counterscreen for inhibitors of the Hepatitis C Virus non-structural protein 3 helicase (NS3): luminescence-based cell-based dose response assay to determine whether compounds that inhibit replication of HCV RNA replicon are cytotoxic. [Related pubchem assays (depositor defined):AID1800, AID1830, AID1845, AID1943, AID1945, AID2172, AID2173, AID2474, AID2476]; format: functional
HEK293 [9] = assay: inhibition of NOD1-driven NF-kB reporter – cell-based, luminescence, uHTS, primary screen (AID 1578); format: functional; details: Homo sapiens
HEK293 [10] = assay: cells; format: functional, cell-based; details: Homo sapiens
[11] = molecular target: T4, Voltage-gated N-type calcium channel alpha-1B subunit/Amyloid beta A4 precursor protein-binding family A member 1 (Homo sapiens, UniProt Q00975+Q02410); format: protein assay
HEK293 [12] = assay: cells; format: functional, cell-based; details: Homo sapiens; remark: listed apart in the source
[13] = molecular target: Nucleotide-binding oligomerization domain-containing protein 2 (Homo sapiens, UniProt Q9HC29); assay: inhibition of NOD2-driven NF-kB reporter – cell-based, luminescence, uHTS, HEK293 (AID 1566); format: functional
HEK293 [14] = assay: NOD2 signaling inhibitors in MDP-stimulated cells, cell-based, uHTS, luminescence (AID 2001); format: functional; details: Homo sapiens
[15] = molecular target: T4, Voltage-gated N-type calcium channel alpha-1B subunit/Amyloid beta A4 precursor protein-binding family A member 1; format: protein assay; remark: listed apart in the source
HEK293 [16] = assay: cells; format: functional, cell-based; details: Homo sapiens; remark: listed apart in the source
[17] = molecular target: T5, Apoptotic protease-activating factor 1 (Homo sapiens, UniProt O14727); format: functional
T5 sequence (O14727 whole entry): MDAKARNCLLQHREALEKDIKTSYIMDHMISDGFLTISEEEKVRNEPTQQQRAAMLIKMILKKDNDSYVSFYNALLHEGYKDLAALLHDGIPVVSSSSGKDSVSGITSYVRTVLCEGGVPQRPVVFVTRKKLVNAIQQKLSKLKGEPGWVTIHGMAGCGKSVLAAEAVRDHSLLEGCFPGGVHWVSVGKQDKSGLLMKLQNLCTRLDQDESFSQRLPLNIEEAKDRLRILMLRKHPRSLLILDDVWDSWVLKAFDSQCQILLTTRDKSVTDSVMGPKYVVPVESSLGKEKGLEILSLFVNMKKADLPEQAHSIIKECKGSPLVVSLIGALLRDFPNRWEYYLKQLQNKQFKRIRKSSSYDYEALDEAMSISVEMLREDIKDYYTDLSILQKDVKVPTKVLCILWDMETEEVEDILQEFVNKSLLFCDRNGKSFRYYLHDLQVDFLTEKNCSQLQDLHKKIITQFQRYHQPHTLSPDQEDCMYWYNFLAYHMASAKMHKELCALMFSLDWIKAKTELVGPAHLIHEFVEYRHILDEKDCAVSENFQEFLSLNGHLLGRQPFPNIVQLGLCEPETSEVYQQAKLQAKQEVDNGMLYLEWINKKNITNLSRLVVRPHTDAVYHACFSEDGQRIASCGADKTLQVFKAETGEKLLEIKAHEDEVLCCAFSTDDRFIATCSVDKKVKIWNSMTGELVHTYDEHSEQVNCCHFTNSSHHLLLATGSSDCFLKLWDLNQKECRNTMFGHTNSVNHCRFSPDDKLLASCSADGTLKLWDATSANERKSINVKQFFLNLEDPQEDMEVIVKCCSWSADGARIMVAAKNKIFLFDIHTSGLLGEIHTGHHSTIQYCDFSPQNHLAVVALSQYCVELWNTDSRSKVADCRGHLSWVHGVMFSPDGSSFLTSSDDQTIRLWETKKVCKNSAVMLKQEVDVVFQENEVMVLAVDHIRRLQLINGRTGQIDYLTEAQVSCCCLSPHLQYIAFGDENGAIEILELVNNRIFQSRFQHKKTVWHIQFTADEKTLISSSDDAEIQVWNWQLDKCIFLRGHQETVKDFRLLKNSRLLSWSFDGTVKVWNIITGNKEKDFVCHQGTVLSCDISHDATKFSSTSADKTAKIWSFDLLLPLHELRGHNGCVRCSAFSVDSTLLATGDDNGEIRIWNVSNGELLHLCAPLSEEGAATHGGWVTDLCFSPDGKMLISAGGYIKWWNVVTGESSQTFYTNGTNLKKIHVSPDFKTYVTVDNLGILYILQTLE

[18] = molecular target: Dual specificity protein phosphatase 3 (Homo sapiens, UniProt P51452); assay: SAR VHR1 Fluorescent Assay for In Vitro dose response studies Set 3. [Related pubchem assays (depositor defined):AID1654, AID1661, AID1878]; format: functional
Dual specificity protein phosphatase 3, sequence (P51452 whole entry): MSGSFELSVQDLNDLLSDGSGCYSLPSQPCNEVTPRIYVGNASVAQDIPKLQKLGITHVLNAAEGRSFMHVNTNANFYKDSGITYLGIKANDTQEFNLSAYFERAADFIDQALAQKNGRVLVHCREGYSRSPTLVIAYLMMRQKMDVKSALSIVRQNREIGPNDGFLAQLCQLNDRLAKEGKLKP

Cytochrome P450 2C19, sequence (P33261 whole entry): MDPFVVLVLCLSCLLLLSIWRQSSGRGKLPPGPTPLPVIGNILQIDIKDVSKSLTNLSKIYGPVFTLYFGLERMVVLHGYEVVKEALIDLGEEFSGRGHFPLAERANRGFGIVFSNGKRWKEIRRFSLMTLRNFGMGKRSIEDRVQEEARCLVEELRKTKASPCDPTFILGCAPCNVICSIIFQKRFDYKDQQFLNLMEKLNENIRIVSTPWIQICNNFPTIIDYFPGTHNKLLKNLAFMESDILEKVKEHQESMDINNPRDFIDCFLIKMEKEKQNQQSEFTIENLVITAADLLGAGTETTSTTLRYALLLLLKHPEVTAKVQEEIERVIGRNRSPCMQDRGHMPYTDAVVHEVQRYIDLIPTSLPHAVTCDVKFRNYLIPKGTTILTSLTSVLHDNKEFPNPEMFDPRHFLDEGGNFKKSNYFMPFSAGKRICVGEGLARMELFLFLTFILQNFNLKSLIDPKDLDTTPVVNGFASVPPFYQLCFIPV
T4 sequence (Q00975 whole entry): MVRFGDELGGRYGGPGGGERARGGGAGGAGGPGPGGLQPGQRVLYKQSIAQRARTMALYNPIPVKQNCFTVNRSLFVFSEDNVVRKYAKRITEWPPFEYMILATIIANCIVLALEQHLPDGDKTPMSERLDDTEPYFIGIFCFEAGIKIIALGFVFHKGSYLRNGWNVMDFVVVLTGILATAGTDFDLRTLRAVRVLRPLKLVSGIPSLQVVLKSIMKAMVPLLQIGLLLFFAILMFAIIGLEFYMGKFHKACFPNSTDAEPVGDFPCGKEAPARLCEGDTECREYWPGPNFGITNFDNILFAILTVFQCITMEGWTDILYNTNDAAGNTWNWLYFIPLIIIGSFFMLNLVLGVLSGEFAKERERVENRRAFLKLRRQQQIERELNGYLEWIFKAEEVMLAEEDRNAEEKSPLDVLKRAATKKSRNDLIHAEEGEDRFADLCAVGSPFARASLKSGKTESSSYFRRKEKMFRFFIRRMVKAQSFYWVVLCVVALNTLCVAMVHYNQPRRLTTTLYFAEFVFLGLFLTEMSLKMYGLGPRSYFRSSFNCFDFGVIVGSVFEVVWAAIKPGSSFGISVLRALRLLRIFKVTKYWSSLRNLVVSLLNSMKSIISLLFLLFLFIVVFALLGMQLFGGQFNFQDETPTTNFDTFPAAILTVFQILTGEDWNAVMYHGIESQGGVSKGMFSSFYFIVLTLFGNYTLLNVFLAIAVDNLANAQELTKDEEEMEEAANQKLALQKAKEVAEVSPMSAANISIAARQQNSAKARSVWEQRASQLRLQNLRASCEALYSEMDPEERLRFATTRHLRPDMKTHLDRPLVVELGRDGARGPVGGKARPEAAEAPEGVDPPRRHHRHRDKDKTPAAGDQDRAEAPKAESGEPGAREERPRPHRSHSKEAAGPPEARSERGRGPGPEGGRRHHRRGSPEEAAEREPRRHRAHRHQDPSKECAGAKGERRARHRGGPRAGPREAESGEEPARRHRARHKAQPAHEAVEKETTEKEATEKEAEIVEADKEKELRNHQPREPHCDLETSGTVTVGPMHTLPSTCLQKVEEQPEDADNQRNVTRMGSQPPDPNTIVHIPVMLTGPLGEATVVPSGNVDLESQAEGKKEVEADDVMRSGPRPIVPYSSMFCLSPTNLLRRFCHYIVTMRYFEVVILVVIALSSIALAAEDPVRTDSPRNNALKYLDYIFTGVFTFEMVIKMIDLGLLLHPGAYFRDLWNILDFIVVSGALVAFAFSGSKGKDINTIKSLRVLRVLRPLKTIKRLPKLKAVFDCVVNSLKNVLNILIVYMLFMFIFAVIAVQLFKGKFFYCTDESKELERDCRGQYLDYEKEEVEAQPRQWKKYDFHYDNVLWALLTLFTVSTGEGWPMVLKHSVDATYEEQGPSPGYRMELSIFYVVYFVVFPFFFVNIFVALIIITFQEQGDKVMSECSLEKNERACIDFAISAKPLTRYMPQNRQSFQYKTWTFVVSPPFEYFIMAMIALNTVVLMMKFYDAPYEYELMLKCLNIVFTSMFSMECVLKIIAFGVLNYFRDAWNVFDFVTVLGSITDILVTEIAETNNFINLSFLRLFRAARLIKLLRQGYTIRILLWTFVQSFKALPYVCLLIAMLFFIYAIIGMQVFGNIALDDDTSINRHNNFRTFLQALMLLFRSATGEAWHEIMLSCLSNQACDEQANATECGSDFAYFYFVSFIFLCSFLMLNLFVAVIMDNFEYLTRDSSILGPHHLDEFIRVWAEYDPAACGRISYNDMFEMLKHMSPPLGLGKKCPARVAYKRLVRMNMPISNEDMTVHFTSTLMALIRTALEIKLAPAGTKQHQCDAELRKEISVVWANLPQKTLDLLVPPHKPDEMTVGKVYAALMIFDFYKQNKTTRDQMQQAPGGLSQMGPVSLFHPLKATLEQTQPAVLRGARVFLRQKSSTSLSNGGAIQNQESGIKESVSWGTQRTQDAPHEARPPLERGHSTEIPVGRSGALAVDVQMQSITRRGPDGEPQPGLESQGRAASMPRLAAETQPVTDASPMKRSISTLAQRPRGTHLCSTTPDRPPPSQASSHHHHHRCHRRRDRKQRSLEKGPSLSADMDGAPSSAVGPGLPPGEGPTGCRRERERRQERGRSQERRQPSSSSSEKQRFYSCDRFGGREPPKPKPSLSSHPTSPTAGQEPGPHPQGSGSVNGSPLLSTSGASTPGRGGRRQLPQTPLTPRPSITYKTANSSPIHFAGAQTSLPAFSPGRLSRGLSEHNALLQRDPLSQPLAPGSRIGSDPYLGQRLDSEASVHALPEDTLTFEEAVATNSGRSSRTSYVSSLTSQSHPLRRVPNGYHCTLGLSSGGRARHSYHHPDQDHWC
T4 sequence (Q02410 whole entry): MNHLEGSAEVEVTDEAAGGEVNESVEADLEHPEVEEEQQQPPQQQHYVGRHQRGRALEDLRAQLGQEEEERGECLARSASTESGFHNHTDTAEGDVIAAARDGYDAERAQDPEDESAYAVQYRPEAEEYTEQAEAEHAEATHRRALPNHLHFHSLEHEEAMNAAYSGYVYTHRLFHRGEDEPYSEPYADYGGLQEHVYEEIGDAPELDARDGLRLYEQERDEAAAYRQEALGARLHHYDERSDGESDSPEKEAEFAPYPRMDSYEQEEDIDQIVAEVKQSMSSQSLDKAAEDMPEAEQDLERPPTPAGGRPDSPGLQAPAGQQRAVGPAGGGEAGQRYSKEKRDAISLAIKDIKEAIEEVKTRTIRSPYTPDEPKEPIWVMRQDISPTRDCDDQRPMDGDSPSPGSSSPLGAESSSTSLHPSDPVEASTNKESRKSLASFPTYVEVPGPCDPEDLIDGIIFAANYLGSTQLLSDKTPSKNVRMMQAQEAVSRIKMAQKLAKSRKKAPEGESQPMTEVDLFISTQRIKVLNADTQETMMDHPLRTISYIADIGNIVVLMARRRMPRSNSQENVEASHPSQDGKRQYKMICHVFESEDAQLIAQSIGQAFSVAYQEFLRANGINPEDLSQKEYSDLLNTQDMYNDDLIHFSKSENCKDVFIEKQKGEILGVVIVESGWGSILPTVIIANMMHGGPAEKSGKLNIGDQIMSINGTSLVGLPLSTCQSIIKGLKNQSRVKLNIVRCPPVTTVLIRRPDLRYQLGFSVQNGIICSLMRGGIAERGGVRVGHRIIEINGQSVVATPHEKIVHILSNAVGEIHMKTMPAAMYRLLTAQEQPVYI
Cytochrome P450 2C9, sequence (P11712 whole entry): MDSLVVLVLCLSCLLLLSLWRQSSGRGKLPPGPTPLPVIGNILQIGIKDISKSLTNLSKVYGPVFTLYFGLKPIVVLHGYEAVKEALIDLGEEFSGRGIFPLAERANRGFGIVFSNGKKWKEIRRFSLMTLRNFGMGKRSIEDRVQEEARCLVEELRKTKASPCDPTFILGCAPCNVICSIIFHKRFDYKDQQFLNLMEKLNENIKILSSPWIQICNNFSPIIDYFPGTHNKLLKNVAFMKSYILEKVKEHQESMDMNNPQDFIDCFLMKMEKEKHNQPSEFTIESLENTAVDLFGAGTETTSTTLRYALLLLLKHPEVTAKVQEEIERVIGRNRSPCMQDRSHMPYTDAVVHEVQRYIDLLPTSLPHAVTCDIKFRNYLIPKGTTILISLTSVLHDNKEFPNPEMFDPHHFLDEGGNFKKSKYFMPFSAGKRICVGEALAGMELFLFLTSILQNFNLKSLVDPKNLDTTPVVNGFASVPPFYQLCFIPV
E3 ubiquitin-protein ligase Mdm2, sequence (Q00987 whole entry): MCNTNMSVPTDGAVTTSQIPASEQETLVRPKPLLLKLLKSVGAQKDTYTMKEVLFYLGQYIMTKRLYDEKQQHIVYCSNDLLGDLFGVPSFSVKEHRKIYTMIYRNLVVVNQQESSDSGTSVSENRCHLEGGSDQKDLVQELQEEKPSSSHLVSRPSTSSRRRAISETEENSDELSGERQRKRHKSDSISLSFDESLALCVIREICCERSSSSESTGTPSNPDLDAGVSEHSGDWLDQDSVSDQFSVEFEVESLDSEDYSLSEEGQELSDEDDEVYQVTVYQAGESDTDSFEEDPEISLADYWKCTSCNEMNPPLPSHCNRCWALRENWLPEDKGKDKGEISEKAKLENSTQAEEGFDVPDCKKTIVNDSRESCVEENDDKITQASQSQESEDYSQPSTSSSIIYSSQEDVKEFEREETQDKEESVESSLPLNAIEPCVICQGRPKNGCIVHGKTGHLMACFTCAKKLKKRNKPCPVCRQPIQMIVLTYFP
Nonstructural protein 1, sequence (Q194T2 whole entry): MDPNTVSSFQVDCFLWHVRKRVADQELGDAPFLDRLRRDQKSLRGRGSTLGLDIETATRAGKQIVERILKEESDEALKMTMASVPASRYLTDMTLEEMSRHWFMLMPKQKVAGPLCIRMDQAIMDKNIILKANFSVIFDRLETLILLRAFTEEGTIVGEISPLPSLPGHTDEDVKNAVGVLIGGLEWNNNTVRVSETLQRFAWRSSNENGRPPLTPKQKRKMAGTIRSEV

## CC1(C)c2ssc(=S)c2-c2ccccc2N1C(=O)CSC1=NCCS1
Nonstructural protein 1
  IC50: 27.7 µM (active)
Cytochrome P450 2C19; read-out: AC50
  AC50: 0.891 µM (inconclusive)
[1]
  AC50: 5.8 µM (active)
Protein RecA
  EC50: 4.27 µM (active)
MDCK
  IC50: > 100 µM (active)
Cytochrome P450 1A2
  AC50: 2 µM (inconclusive)
Cytochrome P450 2C9
  AC50: 2.82 µM (inconclusive)

## Oc1nncc(-c2ccccc2)n1
Cytochrome P450 2C19
  AC50: inconclusive
[2]
  AC50: 58.5 µM (active)
Cytochrome P450 1A2
  AC50: 14.1 µM (inconclusive)

## O=C1N/C(=C/c2ccc(N3CCOCC3)o2)C(=O)N1c1ccccc1
[3]
  EC50: 6.73 µM (not active)
[4]
  AC50: > 195 µM (inactive)
[5]
  AC50: 45.7 µM (active)
[6]
  AC50: > 70 µM (inactive)
[7]
  AC50: 5.03 µM (active)

## COc1ccc(C=NNC(=O)c2cc(O)c(O)c(O)c2)cc1COc1ccc(C(=O)OCC(C)C)cc1
[8]
  CC50: > 100 µM (inactive)

## CCCCCCc1cc2cc(-c3nnc(-c4ccccc4OC)o3)c(=O)oc2cc1O
HEK293 [9]
  EC50: 6.54 µM (active)
HEK293 [10]
  IC50: 9.41 µM (active)
[11]
  IC50: > 56.8 µM (not active)
HEK293 [12]
  IC50: > 20 µM (inactive)
[13]
  EC50: > 20 µM (inactive)
HEK293 [14]
  IC50: 8.48 µM (active)
[15]
  IC50: > 50 µM (inactive)
HEK293 [16]
  IC50: > 20 µM (inactive)
[17]
  IC50: 15.9 µM (active)

## Cn1c(SCC(=O)Nc2ccc3nc(SCC(=O)c4ccc(Cl)cc4)sc3c2)nnc1-c1ccc(N)cc1
[18]
  IC50: 40.6 µM (active)
